Test results: US20060167098A1, “Method for the treatment of diseases linked to an accumulation of triglycerides and cholesterol” (Institut National De La Sante ET De LA Recherche Medicale …, priority 2003, published 2006)

Columns and labels:
Format in all cases: in vivo
[1] = Plasma lipids in ob/ob mice, 6 weeks, 48-hour fast
Method: (§1) Plasma lipids (triglycerides, total cholesterol, phospholipids) were measured on an automatic analyser (Hitachi 717®). The commercial kits used to assess triglycerides, total cholesterol and phospholipids on this analyser were all from bioMérieux (references 61238, 61219 and 61491, respectively). Plasma non esterified fatty acids (NEFA) were assessed by using a commercial kit (Wako, reference 994-75409). Hepatic and plasma lipids were performed at the end of six weeks of treatment in animals that have been fasted for 48 hours. Triglycerides and HDL-cholesterol were also assessed after 2 months (in the fed state) or after 4 months of treatment (after an overnight fast).
Plasma lipids were assessed in ob/ob mice fed with a standard diet and receiving or not β-aminoisobutyric acid (BAIBA) in the drinking water during 6 weeks. These animals (7 controls and 10 treated with BAIBA) were those used for the determination of hepatic lipids (see above, paragraph II-b). At the end of the 6 weeks of treatment, mice were submitted to a 48-hour period of fast. Samples of blood were then collected (from the retroorbital sinus) for the assessment of plasma triglycerides, phospholipids and total cholesterol and mice were subsequently killed for assessment of liver triglycerides (see above). In this experiment, BAIBA decreased by 5, 23 and 19%, respectively plasma triglycerides, phospholipids and total cholesterol. The results are submitted in FIG. 7.

[2] = Plasma lipids in ob/ob mice, 6 weeks, 15 hours overnight fast; conditions: 100 mg/kg/day 6 weeks, fasted 15 hours
Method: as §1
Plasma HDL-cholesterol and alanine aminotransferase (ALT) were measured on an automatic analyser (Olympus AU400®) with commercial kits (Olympus Diagnostica GmbH, references OSR6187 and OSR6107, respectively).
In a second series of experiments, plasma lipids were assessed in ob/ob mice fed with a standard diet and receiving or not of 100 mg/kg/day of β-aminoisobutyric acid (BAIBA) in the drinking water during 6 weeks, but at the end of the experiment mice were fasted for only 15 hours (i.e. for an overnight fast). Samples of blood were then collected in controls mice (n=4) and in mice treated with BAIBA (n=5) for the assessment of plasma triglycerides, total cholesterol and HDL-cholesterol. In this experiment, BAIBA decreased plasma triglycerides and total cholesterol by 10 and 8%, respectively. Indeed, plasma triglycerides were 1.35±0.07 and 1.22±0.06 mmol/L, respectively in control and treated ob/ob mice, whereas plasma total cholesterol was 6.78±0.51 and 6.24±0.11 mmol/L, respectively in control and treated mice. […] Indeed, HDL-cholesterol was 4.73±0.31 and 4.92±0.24 mmol/L, respectively in control and treated mice.

[3] = Body fat mass by DEXA in Swiss mice fed with a western diet
Method: In our investigations, two kinds of diet were used: 1—a standard diet (A04 diet from UAR) containing 3% of lipids and bringing 2900 kcal per kg; 2—a western diet (from UAR too) containing 16% of lipids and bringing 4300 kcal per kg.
D,L-β-Aminoisobutyric acid (BAIBA) was purchased from Sigma-Aldrich. BAIBA has been administered in drinking water at the dose of 100 mg/kg/day or 500 mg/kg/day for 6 weeks, 2 months or 4 months according to the experiments.
The in vivo determination of body fat mass in anesthetized mice has been performed by “DEXA” (Dual Energy X-ray Absorptiometry) (Pietriobelli A., Formica C., Wang Z., Heymsfield S. B., 1996, Am. J. Physiol. 271 (Endocrinol. Metab. 34): E941-E951)). […] It is noteworthy that DEXA also gives for each investigated animal its lean mass that is the total amount of water and proteins (in grams) in the body (excluding the head). Therefore, for a given animal, DEXA allows the determination of the percentage of body fat which is its body fat mass divided by the sum of its body lean and fat masses (fat mass/(lean mass+fat mass)). The “DEXA” apparatus was a Piximus® from Lunar Corporation (Madison, Wis.). Mice were anesthetized thanks to a mixture of xylazine and ketamine. […]
In a third series of experiments, we sought to determine as to whether of 100 mg/kg/day of β-aminoisobutyric acid (BAIBA) would be able to decrease body fat mass in Swiss mice fed with a western diet (i.e. hypercaloric diet). For this purpose, young (4 weeks old at T0) Swiss mice were fed with a hypercaloric western diet (WD), with or without BAIBA in the drinking water (8 mice in each group). For comparison, the experiment included a group of mice (n=8) fed with a standard diet (SD). DEXA was performed one day before the beginning of the treatment (T0) and then two, four and six weeks after the initiation of the experience (T2, T4 and T6, respectively). This allowed us to determine for each animal the variation of body parameters (e.g. fat mass, body weight) for the different periods of the treatment (T0-T2, T2-T4, T4-T6 and T0-T6). For these four DEXA determinations (T0 to T6), mice were not fasted before measurements. In this experiment, BAIBA reduced the gain of body fat mass in Swiss mice fed with a western diet and this beneficial effect was observed from the fourth week of the BAIBA administration. This effect is illustrated in FIG. 3. […] Indeed, during the T0-T6 period control mice fed with the western diet (Controls-WD) gained 4.88±0.83 grams of body fat whereas mice fed with the same diet and receiving BAIBA (BAIBA-WD) gained 3.91±0.59 grams of body fat mass. For comparison, mice fed with the standard diet (Controls-SD) gained 3.18±0.34 grams of body fat during the entire period (T0-T6) of the experiment. • At the end of the treatment (T6), the body fat mass was 4.48±0.33, 6.21±0.85 and 5.25±0.60 grams, respectively for the Controls-SD, Controls-WD and BAIBA-WD groups of mice (15% decrease between Controls-WD and BAIBA-WD). The percentage of body fat ((fat mass)/(fat+lean mass)) was at this time 13.23±0.86, 17.96±2.04 et 15.76±1.53%, respectively in the Controls-SD, Controls-WD and BAIBA-WD groups.
Finally, we sought to determine on the very same animals as to whether fasting would be able to enhance the beneficial effect of BAIBA on body fat mass. Thus, after the fourth DEXA measurement (i.e. DEXA determination at T6), mice were allowed to recover from the anaesthesia for ca. 2 days and were then submitted to a 48-hour period of fast. A last DEXA measurement was then performed in fasted mice. […] Indeed, after the fasting period, body fat mass was 3.10±0.30, 5.40±0.75 et 4.79±0.56 grams, respectively in control mice fed the standard diet (Controls-SD), control mice fed with the western diet (Controls-WD), and mice fed with the western diet and receiving BAIBA (BAIBA-WD). […]

Compound: CC(CN)C(=O)O (racemic) [BAIBA, D,L-β-Aminoisobutyric acid]
- decrease of plasma phospholipids [1]: 23%
- decrease of plasma total cholesterol [1]: 19%
- decrease of plasma triglycerides [1]: 5%
- plasma triglycerides [1]: 1.32 ± 0.14 mmol/L
- plasma phospholipids ([1]; p<0.01): 4.07 ± 0.26 mmol/L
- plasma total cholesterol ([1]; p<0.05): 4.98 ± 0.34 mmol/L
- HDL-cholesterol [2]: 4.92 ± 0.24 mmol/L
- decrease of plasma total cholesterol [2]: 8%
- decrease of plasma triglycerides [2]: 10%
- plasma total cholesterol [2]: 6.24 ± 0.11 mmol/L
- plasma triglycerides [2]: 1.22 ± 0.06 mmol/L
- gain of body fat mass ([3]; 100 mg/kg/day, western diet, T0-T6): 3.91±0.59 grams
- reduction of the gain of body fat mass ([3]; 100 mg/kg/day, western diet, T0-T6, vs Controls-WD): 20%
- body fat lost ([3]; 100 mg/kg/day, western diet, T4-T6 period): 0.45±0.30 grams
- body weight ([3]; 100 mg/kg/day, western diet, after 6 weeks): 37.0±0.76 grams
- percentage of body fat ((fat mass)/(fat+lean mass)) ([3]; 100 mg/kg/day, western diet, at T6): 15.76±1.53%
- body fat mass ([3]; 100 mg/kg/day, western diet, at T6, fed): 5.25±0.60 grams
- body fat mass ([3]; western diet 6 weeks, after 48-hour fasting period): 4.79±0.56 grams
- decrease of the percentage of body fat ([3]; western diet 6 weeks, fasted state): 11%
- decrease of the percentage of body fat ([3]; western diet 6 weeks, fed state): 15%
- decrease of body fat mass between Controls-WD and BAIBA-WD ([3]; western diet, at T6): 15%
- body weight ([3]; western diet, at the end of the fasting period): 33.6±0.9 grams
